According to US20010036949A1, “Pharmaceutical composition and method of treatment of diseases of cognitive dysfunction in a mammal” (priority 2000, published 2001):

How the values were obtained:
human m4 receptor = molecular target: T1, human m4 receptor (Homo sapiens, UniProt P08173); experiment: Inhibition of forskolin-stimulated cAMP accumulation, m4 receptor; format: cell-based; details: standard agonist, typical value, 5 uM forskolin
T1 construct: host or cells: CHO-K1
T1 sequence (P08173 1-479): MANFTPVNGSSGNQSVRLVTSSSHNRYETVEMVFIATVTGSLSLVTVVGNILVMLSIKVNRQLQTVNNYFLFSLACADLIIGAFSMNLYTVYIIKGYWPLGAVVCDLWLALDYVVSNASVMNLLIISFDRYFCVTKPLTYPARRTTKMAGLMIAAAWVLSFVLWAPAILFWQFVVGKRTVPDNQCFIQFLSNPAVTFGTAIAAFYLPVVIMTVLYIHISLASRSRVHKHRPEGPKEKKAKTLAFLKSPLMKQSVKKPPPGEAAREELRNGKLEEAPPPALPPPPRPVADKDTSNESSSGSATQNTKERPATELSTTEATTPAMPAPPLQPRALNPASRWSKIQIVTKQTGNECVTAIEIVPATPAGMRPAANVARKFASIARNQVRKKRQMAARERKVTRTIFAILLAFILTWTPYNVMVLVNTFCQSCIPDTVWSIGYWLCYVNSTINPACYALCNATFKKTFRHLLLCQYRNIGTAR
Protocol: (§1) The activity of muscarinic receptors can be determined according to the following protocol. Chinese hamster ovary cells (CHO-K1) stably transformed to express human m1-m5_receptors can be obtained from Dr. Tom Bonner (Laboratory of Cell Biology, National Institute of Mental Health, Building 36, Rm 3A-17, National Institute of Health, Bethesda, Md. 20892). Cells are maintained in Dulbecco's Modified Eagle Medium containing 10% fetal calf serum and harvested at confluence by brief incubation in Ca++/Mg++_free phosphate-buffered saline containing 4 mM EDTA.
(§2) Functional responses at m2 and m4 receptors can be determined by measuring inhibition of forskolin-stimulated cAMP accumulation. Harvested cells are preincubated (15 minutes at 20-22° C.) with 3-isobutyl-1-methyl-xanthine ([…]; 0.2 mM) and then incubated (10 minutes at 20-22° C.) in a HEPES-buffered Krebs solution with test compounds in the presence of 5 uM forskolin. The reaction is stopped by the addition of 10N acetic acid and the CAMP content of dried supernatants is determined using a scintillation proximity assay (Amersham).

human m2 receptor = molecular target: T2, human m2 receptor (Homo sapiens, UniProt P08172); experiment: Inhibition of forskolin-stimulated cAMP accumulation, m2 receptor; format: cell-based; details: standard agonist, typical value, 5 uM forskolin
T2 sequence (P08172 1-466): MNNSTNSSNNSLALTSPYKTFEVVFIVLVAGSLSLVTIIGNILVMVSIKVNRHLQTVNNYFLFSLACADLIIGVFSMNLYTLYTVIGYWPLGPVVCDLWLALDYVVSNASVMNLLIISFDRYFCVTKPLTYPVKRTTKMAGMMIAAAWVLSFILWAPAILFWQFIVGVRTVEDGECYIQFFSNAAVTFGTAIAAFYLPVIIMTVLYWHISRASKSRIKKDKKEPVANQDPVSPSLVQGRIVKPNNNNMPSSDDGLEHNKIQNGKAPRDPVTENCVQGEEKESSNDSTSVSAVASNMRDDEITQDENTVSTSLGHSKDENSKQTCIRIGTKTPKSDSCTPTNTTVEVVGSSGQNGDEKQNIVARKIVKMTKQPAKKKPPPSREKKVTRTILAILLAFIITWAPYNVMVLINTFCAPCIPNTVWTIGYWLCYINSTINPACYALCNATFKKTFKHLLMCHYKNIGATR
Protocol: as §1, §2

inhibition of the forskolin-stimulated cAMP levels (human m4 receptor): 60-80%
inhibition of the forskolin-stimulated cAMP levels (human m2 receptor): 60-80%
Compound: C[N+](C)(C)CCOC(N)=O [Carbachol]
